Laboratory results: article PMC10247784, “Physiological activation of human and mouse bitter taste receptors by bile acids” (Communications Biology, 2023)
“And” between values parts separate entries of the source, which are not always exact repeats. Equal values may be shown once.

Target: T1, human TAS2R1 (Homo sapiens, UniProt Q9NYW7)
T1 construct: expressed in transfected cells; host or cells: HEK293T-Gα16gust44
T1 sequence (Q9NYW7 1-299): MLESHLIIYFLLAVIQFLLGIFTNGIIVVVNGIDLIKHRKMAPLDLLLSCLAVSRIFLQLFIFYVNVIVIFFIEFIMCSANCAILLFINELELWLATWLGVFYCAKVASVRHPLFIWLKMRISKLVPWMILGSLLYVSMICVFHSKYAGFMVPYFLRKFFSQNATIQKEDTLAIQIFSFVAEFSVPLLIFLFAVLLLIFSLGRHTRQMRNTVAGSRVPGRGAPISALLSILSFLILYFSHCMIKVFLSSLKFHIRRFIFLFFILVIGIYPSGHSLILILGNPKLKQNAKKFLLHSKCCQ
Experiment: Calcium imaging assay (FLIPR), HEK293T-Gα16gust44 cells transfected with human TAS2R1
Format: cell-based
How it was run: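 HEK293T-Gα16gust44 cells transiently transfected with the bitter-taste receptor, loaded next day with Fluo-4-AM plus 2.5 mM probenecid, and challenged with bile acids on FLIPR Tetra. Signals mock-subtracted, expressed as ΔF/F vs buffer.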

Efficacy = maximal amplitude (ΔF/F) (TAS2R1, bile acids, mean): 0.1201 | Efficacy (maximal amplitude ΔF/F), individual data points (TAS2R1, bile acids, single replicates, listed as UDCA): 0.1146 and 0.1323 and 0.1134 | RLU (Time 0 s): 0 RLU | RLU (Time 2.015 s): -1.909 RLU | RLU (Time 4.015 s): -10.1979 RLU | RLU (Time 6.015 s): -25.0303 RLU | RLU (Time 8.015 s): -6.66 RLU | RLU (Time 12.015 s): -0.9118 RLU | RLU (Time 14.015 s): -27.1256 RLU | RLU (Time 16.015 s): -36.3442 RLU | RLU (Time 18.015 s): -16.5405 RLU | RLU (Time 18.796 s): -5.241 RLU | RLU (Time 20.796 s): -5.4345 RLU | RLU (Time 22.796 s): -14.9172 RLU | RLU (Time 24.796 s): 111.581 RLU | RLU (Time 26.796 s): 220.014 RLU | RLU (Time 28.796 s): 332.008 RLU | RLU (Time 30.796 s): 471.987 RLU | RLU (Time 32.796 s): 554.696 RLU | RLU (Time 34.796 s): 591.628 RLU | RLU (Time 36.796 s): 614.691 RLU | RLU (Time 38.796 s): 661.973 RLU | RLU (Time 40.796 s): 688.451 RLU | RLU (Time 42.796 s): 682.803 RLU | RLU (Time 44.796 s): 694.821 RLU | RLU (Time 46.796 s): 713.853 RLU | RLU (Time 48.796 s): 712.245 RLU | RLU (Time 50.796 s): 701.71 RLU | RLU (Time 52.796 s): 706.484 RLU | RLU (Time 54.796 s): 693.141 RLU | RLU (Time 56.796 s): 703.514 RLU | RLU (Time 58.796 s): 690.888 RLU | RLU (Time 60.796 s): 687.968 RLU | RLU (Time 62.796 s): 660.683 RLU | RLU (Time 64.796 s): 647.003 RLU | RLU (Time 66.796 s): 672.518 RLU | RLU (Time 68.796 s): 641.326 RLU | RLU (Time 70.796 s): 644.562 RLU | RLU (Time 72.796 s): 618.535 RLU | RLU (Time 74.796 s): 611.038 RLU | RLU (Time 76.796 s): 596.187 RLU | RLU (Time 78.796 s): 593.169 RLU | RLU (Time 80.796 s): 594.173 RLU | RLU (Time 82.796 s): 573.074 RLU | RLU (Time 84.796 s): 565.693 RLU | RLU (Time 86.796 s): 545.003 RLU | RLU (Time 88.796 s): 536.557 RLU | RLU (Time 90.796 s): 528.103 RLU | RLU (Time 92.796 s): 490.474 RLU | RLU (Time 94.796 s): 507.179 RLU | RLU (Time 96.796 s): 484.826 RLU | RLU (Time 98.796 s): 487.253 RLU | RLU (Time 100.796 s): 484.348 RLU | RLU (Time 102.796 s): 464.491 RLU | RLU (Time 104.796 s): 467.659 RLU | RLU (Time 106.796 s): 432.725 RLU | RLU (Time 108.796 s): 406.747 RLU | RLU (Time 110.796 s): 379.699 RLU | RLU (Time 112.796 s): 357.544 RLU | RLU (Time 114.796 s): 362.533 RLU | RLU (Time 116.796 s): 332.202 RLU | RLU (Time 118.796 s): 323.517 RLU | RLU (Time 120.796 s): 321.799 RLU | RLU (Time 122.796 s): 311.834 RLU | RLU (Time 124.796 s): 301.938 RLU | RLU (Time 126.796 s): 306.062 RLU | RLU (Time 128.796 s): 271.359 RLU | RLU (Time 130.796 s): 275.474 RLU | RLU (Time 132.796 s): 247.428 RLU | RLU (Time 134.796 s): 253.899 RLU | RLU (Time 136.796 s): 243.041 RLU | RLU (Time 137.562 s): 220.326 RLU | RLU (Time 143.562 s): 203.668 RLU | RLU (Time 149.562 s): 176.37 RLU | RLU (Time 155.562 s): 166.486 RLU | RLU (Time 161.562 s): 168.826 RLU | RLU (Time 167.562 s): 116.188 RLU | RLU (Time 173.562 s): 124.68 RLU | RLU (Time 179.562 s): 97.5703 RLU | RLU (Time 185.562 s): 83.8515 RLU | RLU (Time 191.562 s): 81.5894 RLU | RLU (Time 197.562 s): 63.0668 RLU | RLU (Time 203.562 s): 46.8203 RLU | RLU (Time 209.562 s): 23.6957 RLU | RLU (Time 215.562 s): 20.9611 RLU | RLU (Time 221.562 s): 21.314 RLU | RLU (Time 227.562 s): 32.3726 RLU | RLU (Time 233.562 s): 4.71 RLU | RLU (Time 239.562 s): 3.353 RLU | RLU (Time 245.562 s): -15.0975 RLU | RLU (Time 293.562 s): -21.0295 RLU | RLU (Time 299.562 s): -10.1171 RLU | RLU (calcium trace, sheet TAS2R1, Time 305.562 s): -21.932 RLU | RLU (calcium trace, sheet TAS2R1, Time 311.562 s): -35.6948 RLU | RLU (calcium trace, sheet TAS2R1, Time 317.562 s): -15.7818 RLU | RLU (calcium trace, sheet TAS2R1, Time 323.562 s): -21.7457 RLU | RLU (calcium trace, sheet TAS2R1, Time 329.562 s): -25.1818 RLU | RLU (calcium trace, sheet TAS2R1, Time 335.562 s): -20.2182 RLU | RLU (calcium trace, sheet TAS2R1, Time 341.562 s): 10.616 RLU | RLU (calcium trace, sheet TAS2R1, Time 347.562 s): -20.1556 RLU | RLU (calcium trace, sheet TAS2R1, Time 353.562 s): -12.0438 RLU | RLU (calcium trace, sheet TAS2R1, Time 359.562 s): -31.063 RLU | Δ F/F (conc. 0,01 mM, TAS2R1): 0.05863 | Δ F/F (conc. 0,03 mM, TAS2R1): 0.1201 | Δ F/F (conc. 0,0001 mM, TAS2R1): -0.003399 | Δ F/F (conc. 0,0003 mM, TAS2R1): 0.009061 | Δ F/F (conc. 0,001 mM, TAS2R1): 0.007937 | Δ F/F (conc. 0,003 mM, TAS2R1): 0.01609 | Activation threshold concentration TAS2R1 (lowest concentration with significantly increased fluorescence vs empty vector (p < 0.01)): 3 µM and 3.00 µM
SMILES: C[C@H](CCC(=O)O)[C@H]1CC[C@H]2[C@@H]3[C@@H](O)C[C@@H]4C[C@H](O)CC[C@]4(C)[C@H]3CC[C@]12C [Ursodeoxycholic Acid, ursodeoxycholic acid]
